Laboratory results reported in patent US20250235543A1, “MODIFIED PROTEINS AND PROTEIN DEGRADERS” (Cullgen (Shanghai), Inc., priority 2021, published 2025).
Where two headings read alike, the source gives them in different places.

Legend:
cyclin D1 = assay: Cyclin D1 percentage degradation in Calu-1 cells (immunoblotting); format: cell-based; details: 16 hours
Summary of the method: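 Cells were rinsed once in cold PBS and lysed in cold RIPA buffer containing protease and phosphatase inhibitors, with gentle agitation at 4° C. for 30 min. Lysates were spun at 13,000 rpm for 10 min at 4° C., protein was measured by BCA, and samples were boiled in Laemmli buffer at 99° C. for 5 min before SDS-PAGE immunoblotting.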

CDK4 = biological target: T1, CDK4 (Homo sapiens, UniProt P11802); assay: CDK4 percentage degradation in Calu-1 cells (immunoblotting); format: cell-based; details: for inhibition at 0.2 µM: read-out: CDK4 Degradation (200 nM); for inhibition at 10 µM: read-out: CDK4 Degradation (10 μM)
T1 construct: endogenous in cells; host or cells: Calu-1
Summary of the method: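 Cultured cells were rinsed once in cold PBS and lysed in cold RIPA buffer containing protease and phosphatase inhibitors, with gentle agitation at 4° C. for 30 min. Lysates were centrifuged at 13,000 rpm for 10 min at 4° C., and protein was quantified by BCA. Samples were then separated by SDS-PAGE, detected with ECL, and the CDK4 bands quantified in Image Lab.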

T1 sequence (P11802 2-303 limits assumed): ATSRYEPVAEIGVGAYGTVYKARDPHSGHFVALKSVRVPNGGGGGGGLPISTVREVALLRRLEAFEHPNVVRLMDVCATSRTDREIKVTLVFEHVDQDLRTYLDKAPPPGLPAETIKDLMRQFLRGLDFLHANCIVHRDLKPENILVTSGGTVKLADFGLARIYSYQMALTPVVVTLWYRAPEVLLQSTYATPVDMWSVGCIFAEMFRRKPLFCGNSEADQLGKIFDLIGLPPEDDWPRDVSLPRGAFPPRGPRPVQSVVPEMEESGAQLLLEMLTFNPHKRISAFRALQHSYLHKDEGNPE
T1 sequence (P24385 whole entry partner): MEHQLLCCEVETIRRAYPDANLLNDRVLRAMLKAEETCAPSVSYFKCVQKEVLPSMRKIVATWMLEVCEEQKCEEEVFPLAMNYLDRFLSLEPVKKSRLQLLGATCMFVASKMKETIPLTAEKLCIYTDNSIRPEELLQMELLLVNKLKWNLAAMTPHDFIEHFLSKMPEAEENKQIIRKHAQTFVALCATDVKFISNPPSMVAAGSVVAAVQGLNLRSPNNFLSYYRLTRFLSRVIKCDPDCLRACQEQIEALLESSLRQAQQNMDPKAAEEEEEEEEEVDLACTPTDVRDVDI
T1 sequence (Q16531 2-1140 limits assumed, further chain): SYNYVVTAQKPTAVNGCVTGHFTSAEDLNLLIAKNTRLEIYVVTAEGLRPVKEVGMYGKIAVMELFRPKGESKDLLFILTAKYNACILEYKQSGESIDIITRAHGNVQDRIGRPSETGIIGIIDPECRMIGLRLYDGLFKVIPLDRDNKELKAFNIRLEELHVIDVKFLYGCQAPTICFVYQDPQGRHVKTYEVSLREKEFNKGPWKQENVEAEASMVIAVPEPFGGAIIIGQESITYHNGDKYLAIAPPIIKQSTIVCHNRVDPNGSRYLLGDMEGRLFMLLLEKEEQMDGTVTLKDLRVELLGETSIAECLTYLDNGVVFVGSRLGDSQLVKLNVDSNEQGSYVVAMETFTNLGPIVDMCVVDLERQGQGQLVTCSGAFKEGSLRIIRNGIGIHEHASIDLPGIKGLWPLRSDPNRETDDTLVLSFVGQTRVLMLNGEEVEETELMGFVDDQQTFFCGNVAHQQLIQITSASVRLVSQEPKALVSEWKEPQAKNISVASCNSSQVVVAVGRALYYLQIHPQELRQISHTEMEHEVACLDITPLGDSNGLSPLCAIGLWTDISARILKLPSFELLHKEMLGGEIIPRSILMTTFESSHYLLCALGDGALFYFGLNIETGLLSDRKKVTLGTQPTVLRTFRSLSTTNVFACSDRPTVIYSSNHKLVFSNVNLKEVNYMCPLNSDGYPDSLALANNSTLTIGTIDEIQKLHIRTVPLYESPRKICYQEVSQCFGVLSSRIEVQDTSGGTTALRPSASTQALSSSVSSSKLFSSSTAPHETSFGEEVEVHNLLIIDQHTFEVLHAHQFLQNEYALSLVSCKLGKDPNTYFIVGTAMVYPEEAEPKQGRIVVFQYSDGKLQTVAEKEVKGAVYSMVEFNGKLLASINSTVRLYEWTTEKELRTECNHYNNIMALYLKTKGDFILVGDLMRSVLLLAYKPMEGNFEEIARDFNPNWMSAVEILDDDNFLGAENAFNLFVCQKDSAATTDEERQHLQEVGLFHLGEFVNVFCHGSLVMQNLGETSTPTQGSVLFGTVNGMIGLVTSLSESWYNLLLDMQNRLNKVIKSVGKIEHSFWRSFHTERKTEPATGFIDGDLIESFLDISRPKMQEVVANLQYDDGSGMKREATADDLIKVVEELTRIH

inhibition at 0.2 µM (CDK4; Calu-1 cells, 200 nM, 16 hours) | inhibition at 10 µM (CDK4; Calu-1 cells, 16 hours) | Compound | CyclinD1 Degradation (200 nM) (cyclin D1) | inhibition at 0.2 µM (CDK4; Calu-1, 16 h) | CyclinD1 Degradation (10 μM) (cyclin D1)
< 30% | – | CC(=O)c1c(C)c2cnc(Nc3ccc(N4CCN(CC(=O)NCCCCCNc5cccc(C(=O)Nc6nc(C)c(C)s6)c5C)CC4)cn3)nc2n(C2CCCC2)c1=O [CPD-100, 3-((5-(2-(4-(6-((6-Acetyl-8-cyclopentyl-5-methyl-7-oxo-7,8-dihydropyrido[2,3-d]pyrimidin-2-yl)amino)pyridin-3-yl)piperazin-1-yl)acetamido)pentyl)amino)-N-(4,5-dimethylthiazol-2-yl)-2-methylbenzamide] | D (protein percentage degradation <30%) | – | –
< 30% | – | CC(=O)c1c(C)c2cnc(Nc3ccc(N4CCN(CC(=O)NCCOCCOCCC(=O)Nc5ccc(Cl)cc5C(=O)Nc5nc(C)c(C)s5)CC4)cn3)nc2n(C2CCCC2)c1=O [CPD-142, 2-(3-(2-(2-(2-(4-(6-((6-Acetyl-8-cyclopentyl-5-methyl-7-oxo-7,8-dihydropyrido[2,3-d]pyrimidin-2-yl)amino)pyridin-3-yl)piperazin-1-yl)acetamido)ethoxy)ethoxy)propanamido)-5-chloro-N-(4,5-dimethylthiazol-2-yl)benzamide] | D (protein percentage degradation <30%) | – | –
< 30% | – | CC(=O)c1c(C)c2cnc(Nc3ccc(N4CCN(CC(=O)NCCCCCCCNc5cccc(C(=O)Nc6ccc(C)nc6)c5C)CC4)cn3)nc2n(C2CCCC2)c1=O [CPD-328, 3-((7-(2-(4-(6-((6-Acetyl-8-cyclopentyl-5-methyl-7-oxo-7,8-dihydropyrido[2,3-d]pyrimidin-2-yl)amino)pyridin-3-yl)piperazin-1-yl)acetamido)heptyl)amino)-2-methyl-N-(6-methylpyridin-3-yl)benzamide] | D (protein percentage degradation <30%) | – | –
50 to 80% | – | CC(=O)c1c(C)c2cnc(Nc3ccc(N4CCN(CC(=O)NCCOCCOCCC(=O)Nc5cc(Br)ccc5C(=O)Nc5nc(C)c(C)s5)CC4)cn3)nc2n(C2CCCC2)c1=O [CPD-144, 2-(3-(2-(2-(2-(4-(6-((6-Acetyl-8-cyclopentyl-5-methyl-7-oxo-7,8-dihydropyrido[2,3-d]pyrimidin-2-yl)amino)pyridin-3-yl)piperazin-1-yl)acetamido)ethoxy)ethoxy)propanamido)-4-bromo-N-(4,5-dimethylthiazol-2-yl)benzamide] | A (protein percentage degradation >=80%) | – | –
– | – | CC(=O)c1c(C)c2cnc(Nc3ccc(N4CCN(CCNCCOCCOCCNc5cccc(C(=O)Nc6nc(C)c(C)s6)c5C)CC4)cn3)nc2n(C2CCCC2)c1=O [CPD-086, 3-((2-(2-(2-((2-(4-(6-((6-Acetyl-8-cyclopentyl-5-methyl-7-oxo-7,8-dihydropyrido[2,3-d]pyrimidin-2-yl)amino)pyridin-3-yl)piperazin-1-yl)ethyl)amino)ethoxy)ethoxy)ethyl)amino)-N-(4,5-dimethylthiazol-2-yl)-2-methylbenzamide] | D (protein percentage degradation <30%) | < 30% | –
– | 50 to 80% | Cc1nc(NC(=O)c2ccccc2NC(=O)CCOCCOCCOCCOCCOCCNC(=O)CN2CCN(c3ccc(Nc4ncc5cc6n(c5n4)C4(CCCCC4)CNC6=O)nc3)CC2)sc1C [CPD-326, N-(4,5-Dimethylthiazol-2-yl)-2-(2-oxo-1-(4-(6-((6′-oxo-7′,8′-dihydro-6′H-spiro[cyclohexane-1,9′-pyrazino[1′,2′:1,5]pyrrolo[2,3-d]pyrimidin]-2′-yl)amino)pyridin-3-yl)piperazin-1-yl)-6,9,12,15,18-pentaoxa-3-azahenicosan-21-amido)benzamide] | – | – | A (protein percentage degradation >= 80%)
– | – | CC(=O)c1c(C)c2cnc(Nc3ccc(N4CCN(C(=O)CCOCCNc5ccc(C)c(C(=O)Nc6nc(C)c(C)s6)c5)CC4)cn3)nc2n(C2CCCC2)c1=O [CPD-110, 5-((2-(3-(4-(6-((6-Acetyl-8-cyclopentyl-5-methyl-7-oxo-7,8-dihydropyrido[2,3-d]pyrimidin-2-yl)amino)pyridin-3-yl)piperazin-1-yl)-3-oxopropoxy)ethyl)amino)-N-(4,5-dimethylthiazol-2-yl)-2-methylbenzamide] | D (protein percentage degradation <30%) | < 30% | –
30 to 50% | – | CC(=O)c1c(C)c2cnc(Nc3ccc(N4CCN(CC(=O)NCCOCCOCCOCCOCCOCCNc5ccc(CNc6nc(C)c(C)s6)c(C)c5)CC4)cn3)nc2n(C2CCCC2)c1=O [CPD-166, 2-(4-(6-((6-Acetyl-8-cyclopentyl-5-methyl-7-oxo-7,8-dihydropyrido[2,3-d]pyrimidin-2-yl)amino)pyridin-3-yl)piperazin-1-yl)-N-(17-((4-(((4,5-dimethylthiazol-2-yl)amino)methyl)-3-methylphenyl)amino)-3,6,9,12,15-pentaoxaheptadecyl)acetamide] | B (protein percentage degradation <80%, and >=50%) | – | –
50 to 80% | – | CC(=O)c1c(C)c2cnc(Nc3ccc(N4CCN(CC(=O)NCCCCCCCNc5ccccc5C(=O)Nc5nc(C)c(C)s5)CC4)cn3)nc2n(C2CCCC2)c1=O [CPD-364, 2-((7-(2-(4-(6-((6-Acetyl-8-cyclopentyl-5-methyl-7-oxo-7,8-dihydropyrido[2,3-d]pyrimidin-2-yl)amino)pyridin-3-yl)piperazin-1-yl)acetamido)heptyl)amino)-N-(4,5-dimethylthiazol-2-yl)benzamide] | A (protein percentage degradation >=80%) | – | –
– | 30 to 50% | Cc1nc(NC(=O)c2ccccc2NC(=O)CCCCCNC(=O)CN2CCN(c3ccc(Nc4ncc5cc(C(=O)N(C)C)n(C6CCCC6)c5n4)nc3)CC2)sc1C [CPD-290, 7-Cyclopentyl-2-((5-(4-(2-((6-((2-((4,5-dimethylthiazol-2-yl)carbamoyl)phenyl)amino)-6-oxohexyl)amino)-2-oxoethyl)piperazin-1-yl)pyridin-2-yl)amino)-N,N-dimethyl-7H-pyrrolo[2,3-d]pyrimidine-6-carboxamide] | – | – | B (protein percentage degradation < 80%, and >= 50%)
50 to 80% | – | CC(=O)c1c(C)c2cnc(Nc3ccc(N4CCN(CC(=O)NCCOCCOCCC(=O)Nc5ccccc5C(=O)Nc5ccc(C)nn5)CC4)cn3)nc2n(C2CCCC2)c1=O [CPD-056, 2-(3-(2-(2-(2-(4-(6-((6-Acetyl-8-cyclopentyl-5-methyl-7-oxo-7,8-dihydropyrido[2,3-d]pyrimidin-2-yl)amino)pyridin-3-yl)piperazin-1-yl)acetamido)ethoxy)ethoxy)propanamido)-N-(6-methylpyridazin-3-yl)benzamide] | A (protein percentage degradation >=80%) | – | –
50 to 80% | – | CC(=O)c1c(C)c2cnc(Nc3ccc(N4CCN(CC(=O)NCCOCCOCCOCCOCCC(=O)Nc5ccccc5C(=O)Nc5nc(C)c(C)s5)CC4)cn3)nc2n(C2CCCC2)c1=O [CPD-170, 2-(1-(4-(6-((6-Acetyl-8-cyclopentyl-5-methyl-7-oxo-7,8-dihydropyrido[2,3-d]pyrimidin-2-yl)amino)pyridin-3-yl)piperazin-1-yl)-2-oxo-6,9,12,15-tetraoxa-3-azaoctadecan-18-amido)-N-(4,5-dimethylthiazol-2-yl)benzamide] | A (protein percentage degradation >=80%) | – | –
50 to 80% | – | CC(=O)c1c(C)c2cnc(Nc3ccc(N4CCN(CC(=O)NCCCCCCCNc5nc(C)ccc5C(=O)Nc5nc(C)c(C)s5)CC4)cn3)nc2n(C2CCCC2)c1=O [CPD-338, 2-((7-(2-(4-(6-((6-Acetyl-8-cyclopentyl-5-methyl-7-oxo-7,8-dihydropyrido[2,3-d]pyrimidin-2-yl)amino)pyridin-3-yl)piperazin-1-yl)acetamido)heptyl)amino)-N-(4,5-dimethylthiazol-2-yl)-6-methylnicotinamide] | A (protein percentage degradation >=80%) | – | –
– | 50 to 80% | Cc1nc(NC(=O)c2ccccc2NC(=O)CCOCCOCCOCCOCCOCCNC(=O)CN2CCN(c3ccc(Nc4ncc5cc(C(=O)N(C)C)n(C6CCCC6)c5n4)nc3)CC2)sc1C [CPD-298, 7-Cyclopentyl-2-((5-(4-(21-((2-((4,5-dimethylthiazol-2-yl)carbamoyl)phenyl)amino)-2,21-dioxo-6,9,12,15,18-pentaoxa-3-azahenicosyl)piperazin-1-yl)pyridin-2-yl)amino)-N,N-dimethyl-7H-pyrrolo[2,3-d]pyrimidine-6-carboxamide] | – | – | A (protein percentage degradation >= 80%)
< 30% | – | CC(=O)c1c(C)c2cnc(Nc3ccc(N4CCN(CC(=O)NCCCCCCCCCNC(=O)COc5ccc(C(=O)Nc6ncc(C)s6)c(C)c5)CC4)cn3)nc2n(C2CCCC2)c1=O [CPD-038, 4-(2-((9-(2-(4-(6-((6-Acetyl-8-cyclopentyl-5-methyl-7-oxo-7,8-dihydropyrido[2,3-d]pyrimidin-2-yl)amino)pyridin-3-yl)piperazin-1-yl)acetamido)nonyl)amino)-2-oxoethoxy)-2-methyl-N-(5-methylthiazol-2-yl)benzamide] | D (protein percentage degradation <30%) | – | –
– | < 30% | Cc1nc(NC(=O)c2ccccc2NC(=O)CCNC(=O)CN2CCN(Cc3ccc(Nc4ncc(F)c(-c5cc(F)c6nc(C)n(C(C)C)c6c5)n4)nc3)CC2)sc1C [CPD-273, N-(4,5-Dimethylthiazol-2-yl)-2-(3-(2-(4-((6-((5-fluoro-4-(4-fluoro-1-isopropyl-2-methyl-1H-benzo[d]imidazol-6-yl)pyrimidin-2-yl)amino)pyridin-3-yl)methyl)piperazin-1-yl)acetamido)propanamido)benzamide] | – | – | D (protein percentage degradation < 30%)
